Results as given in publication PMC7369637, “Inhibition of Resistance-Refractory P. falciparum Kinase PKG Delivers Prophylactic, Blood Stage, and Transmission-Blocking Antiplasmodial Activity” (Cell Chemical Biology, 2020).
pIC50: −log10 of the molar value.

Assays:
Pf Dd2-B2 ABS parasites = experiment: 72-h asexual blood stage (ABS) growth inhibition assay, Dd2-B2; assay type: cell-based, Plasmodium falciparum; conditions: Dd2-B2 wild-type, 72 h; read-out: Mean IC50, 72 h ABS activity
Description: (§1) Synchronicity was achieved using three rounds of sorbitol treatment on early rings, spaced 48 h apart, followed by magnetic purification of segmented schizonts following the final sorbitol treatment. Parasites were highly synchronous to within a 3 h window of development. Assays were repeated on at least three independent occasions (each with technical duplicates) and statistical significance was assessed using Mann Whitney U tests.

sel. Dd2-B2 TKL3T1268R = experiment: 72-h ABS assay, MMV030084-selected line; assay type: cell-based, Plasmodium falciparum
Description: as §1
The resulting MMV030084-resistant parasites were cloned by limiting dilution ([Baker et al., 2017]) to obtain genetically homogenous cultures for further phenotyping and whole-genome sequencing. A second round of […]. […] Drug susceptibility of resistant lines was assessed using a 72 h ABS assay as described above, and a Mann Whitney U test was applied to assess statistically significant differences.

AAT cKD line = experiment: Compound susceptibility assay using cKD lines (72 h, Renilla luciferase); assay type: cell-based, Plasmodium falciparum; conditions: AAT cKD line
Source text: (§2) To study the interaction between the compounds and PKG (PF3D7_1436600), AAT (PF3D7_1231400), CDPK1 (PF3D7_0217500), TKL3 (PF3D7_1349300), PP1 (PF3D7_1414400), and URP (PF3D7_0808300), cKD lines were generated by fusing the transcripts with RNA aptamers for translation regulation with the TetR/DOZI system ([Ganesan et al., 2016]). The right homology regions (RHR) of each target gene were amplified by PCR, using the primers listed in Table S1 (A), and along with the left homology regions (LHR) were fused to the re-codonized 3'-end region of the gene. Single guide RNA fragments were synthesized using the BioXP™ 3200 System (SGI-DNA; Table S1 (A)) and were cloned into the pSN054 vector ([Nasamu et al., 2019]) to install the C-terminal epitope tags V5 and 2x-hemagglutinin (HA) followed by a 10x RNA aptamer array and the TetR-DOZI expression cassette. This cassette also contained Blasticidin S-deaminase for selection in the parasites and the reporter gene Renilla luciferase (RLuc). The 3'-end of each target was re-codonized to avoid further modifications of the edited locus in the parasite via removal of the PAM site. Donor vector generation was carried out via Gibson assembly, and the final construct sequence was confirmed by restriction digests and Sanger sequencing.
(§3) Transfection into parasites was carried out by preloading erythrocytes with linearized vectors as described previously ([Deitsch et al., 2001]). Briefly, 50 μg of purified plasmid DNA was mixed with human RBC and subjected to 8 square wave electroporation pulses of 365 V for 1 ms each, separated by 0.1 s in a 0.2 cm cuvette. The plasmid DNA preloaded cells were inoculated with NF54 parasites expressing Cas9 and T7 RNA polymerase, maintained in 500 nM anhydrotetracycline (aTc, Sigma-Aldrich 37919), and drug selection with 2.5 μg/mL of Blasticidin (RPI Corp B12150-0.1) was initiated four days after transfection. Emergence of transfectants was monitored via Giemsa smears and RLuc measurements.
(§4) Synchronized ring-stage cKD parasites in varying aTc concentrations (high = 50 nM, intermediate = 1.5 nM, low = 1 nM, and no aTc) were distributed into the drug plate. No-drug treatment and treatment with a lethal dose of chloroquine (200 nM) served as reference controls.

CDPK1 cKD line = experiment: as above; assay type: cell-based, Plasmodium falciparum; conditions: CDPK1 cKD line
Source text: as §2, §3, §4

PKG cKD line = experiment: as above; assay type: cell-based, Plasmodium falciparum; conditions: PKG cKD line
Source text: as §2, §3, §4

PP1 cKD line = experiment: as above; assay type: cell-based, Plasmodium falciparum
Source text: as §2, §3, §4

TKL3 cKD line = experiment: as above; assay type: cell-based, Plasmodium falciparum; conditions: TKL3 cKD line
Source text: as §2, §3, §4

URP cKD line = experiment: as above; assay type: cell-based, Plasmodium falciparum
Source text: as §2, §3, §4

[1] = tested on: recombinant TKL3 kinase domain; experiment: Radioactive in vitro kinase assay with recombinant TKL3 kinase domain; assay type: biochemical, Plasmodium falciparum; conditions: 20 μM compound
Description: Recombinant proteins were expressed in E. coli as previously described ([Abdi et al., 2010]). […] The cultures were then cooled to 20°C followed by induction of protein expression with 0.5 mM IPTG and further incubation at 20°C, 200 rpm for 16 h. Cultures were harvested by centrifugation at 4000g, 4°C for 10 min. Bacterial pellets were washed once in 1× PBS and were stored at −80°C. Cell pellets were resuspended in ice-cold Lysis Buffer (50 mM sodium phosphate, pH 8.0, 400 mM NaCl, 5 % (w/v) glycerol, 0.1 % (v/v) Triton X-100, 20 mM imidazole, 2 mM β-mercaptoethanol, 1× Roche protease inhibitor cocktail EDTA-free, 1 mg/ml lysozyme). Cells were disrupted by sonication. Protein was bound on a HisTrap HP column and eluted with a linear gradient of increasing imidazole concentrations. The peak fractions as determined by A280 trace were pooled together and further purified by size exclusion chromatography on a S200 gel filtration column equilibrated in 25 mM Tris pH 7.5, 100 mM NaCl, 5 % (w/v) glycerol, 1 mM DTT. Protein was pooled and concentrated. Final concentration was determined using a Bradford assay with a BSA protein standard.
Kinase assays containing 3 μg of recombinant kinase (WT or mutant) were performed in kinase assay buffer (25 mM Hepes, pH 7.5, 2 mM MnCl2, 10 mM β-glycerophosphate, 10 mM NaF, 25 μM ATP (containing 5 μCi [γ-^32P]-ATP-3000 mCi/mmol (PerkinElmer)), 5 μg substrate myelin basic protein (MBP) and ± 20 μM inhibitor) in a final reaction volume of 20 μl and incubated at 30°C for 30 min. Reactions were stopped by the addition of 5× Laemmli sample buffer and heated to 98°C for 5 min. Proteins were resolved by 4-12 % SDS-PAGE and stained in Coomassie Brilliant Blue. Kinase activity was detected by phosphorimaging. Imaging was performed on a Typhoon 5 Biomolecular imager (GE Healthcare Life Sciences).

[2] = molecular target: T1, cGMP-dependent protein kinase (PKG) (PF3D7_1436600) (Plasmodium falciparum, UniProt Q8I719); experiment: Competitive chemoproteomics in Pf lysates (Kinobeads / bead-immobilized compound); assay type: binding; conditions: lysates exposed to 40 μM of the same compound vs vehicle
T1 construct: The beads were incubated at 4°C for 1 h with either 0.1 ml (0.3 mg) Pf blood stage extract; endogenous in cells; host or cells: P. falciparum asexual blood-stage parasites (trophozoite stage), saponin-freed and lysed

[3] = molecular target: T2, calcium-dependent protein kinase 1 (CDPK1) (PF3D7_0217500) (Plasmodium falciparum, UniProt P62344); experiment: as above; assay type: binding; conditions: lysates exposed to 40 μM of the same compound vs vehicle
T2 construct: endogenous in cells; host or cells: P. falciparum asexual blood-stage parasites (trophozoite stage)
Description: (§5) Pf protein extracts were prepared as described elsewhere ([Paquet et al., 2017]). Parasite cultures at the trophozoite stage were harvested, washed twice in RPMI 1640 medium (Gibco), and lysed by the addition of saponin to a final concentration of 0.1% for 5 min at room temperature. Free parasites were sedimented by centrifugation (3500 rpm for 10 min), washed three times with phosphate-buffered saline, and stored at −80°C. Parasites were resuspended in cell lysis buffer (50 mM tris-HCl (pH 7.5), 5% glycerol, 1.5 mM MgCl2, […], 1 mM […], 25 mM sodium fluoride, 0.8% NP-40, EDTA-free protease inhibitor cocktail tablets (Roche Diagnostics), and 1 mM DTT) and disrupted by sonication (Sonics Vibra-Cell) using two 30-s cycles on ice at half-amplitude. After centrifugation (140,000g for 1 h at 4°C), soluble proteins were recovered from the supernatants, and protein concentrations of each sample were estimated using the Lowry-based DC assay (Bio-Rad). Samples were stored at −80°C until use.
(§6) Kinobeads were prepared by immobilizing Bis-(III) indolyl-maleimide, purvalanol B, staurosporine and CZC8004, and the analogs of PD173955, sunitinib and vandetanib on NHS-activated Sepharose 4 beads (Amersham) ([Bantscheff et al., 2007]). […] The chemoproteomic affinity-capturing experiments were performed as previously described ([Bantscheff et al., 2011]). Briefly, beads were washed and equilibrated in lysis buffer (50 mM Tris-HCl, pH 7.4, 0.4 % Igepal-CA630, 1.5 mM MgCl2, 5 % Glycerol, 150 mM NaCl, 25 mM NaF, 1 mM Na3VO4, 1 mM DTT, and one cOmplete EDTA-free protease inhibitor tablet (Roche) per 25 mL). The beads were incubated at 4°C for 1 h with either 0.1 ml (0.3 mg) Pf blood stage extract or 0.5 mL (2.5 mg) human cell/tissue protein extract (a mixture of HEK-293, K-562, Hep G2 , and placental cells), which was pre-incubated with compound or DMSO (vehicle control). 10 samples were measured in parallel (TMT 10-plex ([Werner et al., 2014])) to generate values for the affinity of the beads to the bound proteins (“depletion” values, 4 samples) and to generate IC50 values (6 samples) in a single experiment. Apparent dissociation constants were determined after accounting for protein depletion by the beads ([Bantscheff et al., 2011]). Beads were transferred to Filter plates (Durapore PVDF membrane, Merck Millipore), washed with lysis buffer, and eluted with SDS sample buffer.
(§7) Proteins were digested according to a modified single pot solid-phase sample preparation (SP3) protocol ([Hughes et al., 2014]). Peptides were labeled with isobaric mass tags (Thermo Fisher Scientific, Waltham, MA) using 10-plex TMT reagents, enabling relative quantification of 10 conditions in a single experiment ([Werner et al., 2014]). The labeling reactions and LC-MS/MS measurements using Q Exactive Orbitrap or Orbitrap Fusion Lumos mass spectrometers (Thermo Fisher Scientific) were performed as described elsewhere ([Sridharan et al., 2019]). Mascot 2.4 (Matrix Science, Boston, MA) was used for protein identification by using a 10 parts per million mass tolerance for peptide precursors and 20 mD (HCD) mass tolerance for fragment ions. To create the fasta file for mascot searching, all proteins corresponding to the taxonomy ‘Plasmodium falciparum (isolate 3D7)’ were downloaded from Uniprot (release 20170621) and supplemented with common contaminant protein sequences of bovine serum albumin, porcine trypsin and mouse, rat, sheep and dog keratins. To assess the false discovery rate (FDR), “decoy” proteins (reverse of all protein sequences) were created and added to the database, resulting in a database containing a total of 14266 protein sequences, with 50% forward and 50% reverse. For peptide and protein identification of human proteins see ([Sridharan et al., 2019]). […]

[4] = molecular target: putative amino acid transporter (AAT) (PF3D7_1231400) (Plasmodium falciparum, UniProt Q8I5A6); experiment: as above; assay type: binding; conditions: lysates exposed to 40 μM of the same compound vs vehicle
Description: as §5, §6, §7

B-raf kinase = conditions: ref Gamo et al., 2010; cited from earlier work

T1 sequence (Q8I719 whole entry): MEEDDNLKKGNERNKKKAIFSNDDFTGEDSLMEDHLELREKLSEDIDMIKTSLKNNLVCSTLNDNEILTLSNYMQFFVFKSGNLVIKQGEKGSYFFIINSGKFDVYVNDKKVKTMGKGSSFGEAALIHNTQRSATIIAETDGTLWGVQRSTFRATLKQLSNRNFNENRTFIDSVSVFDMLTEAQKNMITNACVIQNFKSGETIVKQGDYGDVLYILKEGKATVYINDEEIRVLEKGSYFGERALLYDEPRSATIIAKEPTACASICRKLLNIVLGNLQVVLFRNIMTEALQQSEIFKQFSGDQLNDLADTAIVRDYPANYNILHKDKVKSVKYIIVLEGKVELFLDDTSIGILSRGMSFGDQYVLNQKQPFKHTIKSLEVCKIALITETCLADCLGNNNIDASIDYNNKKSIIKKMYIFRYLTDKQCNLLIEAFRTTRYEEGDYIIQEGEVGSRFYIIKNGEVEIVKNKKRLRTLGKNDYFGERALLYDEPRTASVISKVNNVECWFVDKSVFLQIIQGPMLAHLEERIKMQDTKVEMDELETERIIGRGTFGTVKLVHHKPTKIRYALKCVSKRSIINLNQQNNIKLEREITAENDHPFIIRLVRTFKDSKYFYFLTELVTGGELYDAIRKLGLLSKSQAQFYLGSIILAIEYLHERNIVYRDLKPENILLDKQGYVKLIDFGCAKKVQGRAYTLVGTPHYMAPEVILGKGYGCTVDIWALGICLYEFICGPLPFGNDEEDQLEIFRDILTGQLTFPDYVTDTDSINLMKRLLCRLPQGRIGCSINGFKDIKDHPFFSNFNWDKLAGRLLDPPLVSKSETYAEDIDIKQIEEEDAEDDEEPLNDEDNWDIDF
T2 sequence (P62344 whole entry): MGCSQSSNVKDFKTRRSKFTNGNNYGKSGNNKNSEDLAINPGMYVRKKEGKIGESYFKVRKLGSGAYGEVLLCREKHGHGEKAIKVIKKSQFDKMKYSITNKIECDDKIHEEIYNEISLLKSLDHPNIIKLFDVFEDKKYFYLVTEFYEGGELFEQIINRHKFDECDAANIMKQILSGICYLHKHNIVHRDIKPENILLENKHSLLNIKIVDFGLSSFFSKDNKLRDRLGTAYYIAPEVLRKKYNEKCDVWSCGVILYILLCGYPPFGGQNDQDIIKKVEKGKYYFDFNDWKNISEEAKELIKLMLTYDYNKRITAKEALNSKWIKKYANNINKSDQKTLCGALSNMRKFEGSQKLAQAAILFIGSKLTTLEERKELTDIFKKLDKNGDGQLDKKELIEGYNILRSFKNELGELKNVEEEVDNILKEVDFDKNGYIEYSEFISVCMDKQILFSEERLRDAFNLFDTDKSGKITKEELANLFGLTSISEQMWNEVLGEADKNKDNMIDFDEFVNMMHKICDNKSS
Chain of putative amino acid transporter (AAT) (PF3D7_1231400) (Q8I5A6 entry or part of it): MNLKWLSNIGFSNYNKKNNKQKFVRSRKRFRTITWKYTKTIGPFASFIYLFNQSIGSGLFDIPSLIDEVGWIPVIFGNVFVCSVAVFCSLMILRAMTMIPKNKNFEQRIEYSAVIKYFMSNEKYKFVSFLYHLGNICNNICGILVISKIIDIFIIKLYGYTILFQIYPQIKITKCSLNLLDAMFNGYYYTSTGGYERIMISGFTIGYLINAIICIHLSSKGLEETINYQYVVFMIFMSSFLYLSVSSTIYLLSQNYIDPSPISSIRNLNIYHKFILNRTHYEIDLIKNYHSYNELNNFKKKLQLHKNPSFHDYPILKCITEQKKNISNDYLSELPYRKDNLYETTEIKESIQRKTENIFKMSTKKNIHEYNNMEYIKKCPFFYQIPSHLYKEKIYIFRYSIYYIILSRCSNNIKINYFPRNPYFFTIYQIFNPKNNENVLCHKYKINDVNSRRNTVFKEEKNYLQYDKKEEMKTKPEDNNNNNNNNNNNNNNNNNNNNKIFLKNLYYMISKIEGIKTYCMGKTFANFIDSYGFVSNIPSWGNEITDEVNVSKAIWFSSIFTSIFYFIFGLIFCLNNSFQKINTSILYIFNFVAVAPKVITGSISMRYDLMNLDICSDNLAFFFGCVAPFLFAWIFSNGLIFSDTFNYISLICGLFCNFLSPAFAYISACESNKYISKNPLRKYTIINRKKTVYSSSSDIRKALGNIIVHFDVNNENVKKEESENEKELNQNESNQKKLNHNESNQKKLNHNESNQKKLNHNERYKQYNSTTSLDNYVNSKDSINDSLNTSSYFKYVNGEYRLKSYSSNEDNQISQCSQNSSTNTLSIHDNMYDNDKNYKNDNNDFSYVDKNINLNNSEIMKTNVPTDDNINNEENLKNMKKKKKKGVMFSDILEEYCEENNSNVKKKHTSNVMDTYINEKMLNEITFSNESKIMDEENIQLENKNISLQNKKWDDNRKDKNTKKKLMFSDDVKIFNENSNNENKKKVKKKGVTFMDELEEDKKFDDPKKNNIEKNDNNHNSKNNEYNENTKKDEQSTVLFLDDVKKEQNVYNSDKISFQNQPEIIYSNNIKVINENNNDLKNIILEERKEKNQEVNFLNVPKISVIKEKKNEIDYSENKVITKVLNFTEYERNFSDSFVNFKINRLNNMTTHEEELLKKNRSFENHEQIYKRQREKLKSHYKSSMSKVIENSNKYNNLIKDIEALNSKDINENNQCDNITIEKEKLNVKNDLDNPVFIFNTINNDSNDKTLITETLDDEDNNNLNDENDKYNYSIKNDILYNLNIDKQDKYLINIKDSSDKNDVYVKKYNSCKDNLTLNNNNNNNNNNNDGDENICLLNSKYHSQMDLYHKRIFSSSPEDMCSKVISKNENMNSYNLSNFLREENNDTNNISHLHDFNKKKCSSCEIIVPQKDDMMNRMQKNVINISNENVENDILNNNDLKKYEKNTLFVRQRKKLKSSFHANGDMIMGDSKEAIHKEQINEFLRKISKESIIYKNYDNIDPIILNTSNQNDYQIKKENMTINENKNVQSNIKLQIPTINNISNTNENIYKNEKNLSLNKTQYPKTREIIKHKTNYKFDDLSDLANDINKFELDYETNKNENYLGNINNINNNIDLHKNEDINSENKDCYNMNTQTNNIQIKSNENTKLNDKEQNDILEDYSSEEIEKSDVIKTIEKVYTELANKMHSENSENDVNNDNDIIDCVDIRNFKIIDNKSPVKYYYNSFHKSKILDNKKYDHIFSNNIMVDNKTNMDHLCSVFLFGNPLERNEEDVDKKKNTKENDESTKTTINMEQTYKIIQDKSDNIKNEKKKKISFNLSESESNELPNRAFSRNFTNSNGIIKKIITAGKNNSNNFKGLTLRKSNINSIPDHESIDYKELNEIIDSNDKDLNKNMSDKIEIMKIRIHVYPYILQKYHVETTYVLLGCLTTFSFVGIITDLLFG

CC(C)(CN)c1nc(-c2ccc(Cl)c(O)c2)c(-c2ccnc(N)n2)[nH]1 [MMV030734]
pIC50 (Pf Dd2-B2 ABS parasites): 7.19
pIC50 (sel. Dd2-B2 TKL3T1268R): 6.71
pIC50 (AAT cKD line; Control, [aTc] used 50.0): 7.37
pIC50 (AAT cKD line; KD, [aTc] used 0.0): 7.73
pIC50 (CDPK1 cKD line; Control, [aTc] used 50.0): 7.68
pIC50 (CDPK1 cKD line; KD, [aTc] used 1.0): 7.74
pIC50 (PKG cKD line; Control, [aTc] used 50.0): 7.68
pIC50 (PKG cKD line; KD, [aTc] used 1.0): 8.08
pIC50 (PP1 cKD line; Control, [aTc] used 50.0): 7.53
pIC50 (PP1 cKD line; KD, [aTc] used 1.5): 7.44
pIC50 (TKL3 cKD line; Control, [aTc] used 50.0): 7.43
pIC50 (TKL3 cKD line; KD, [aTc] used 0.0): 7.09
pIC50 (URP cKD line; Control, [aTc] used 50.0): 7.47
pIC50 (URP cKD line; KD, [aTc] used 0.0): 7.35
Reduction in TKL3 kinase activity [1]: no reduction

CC(C)(CN)c1nc(-c2ccc(Br)c(O)c2)c(-c2ccncc2)[nH]1 [TCMDC-140680]
pIC50 (Pf Dd2-B2 ABS parasites): 7.07
pIC50 (sel. Dd2-B2 TKL3T1268R): 6.60

CN1CCC=C(C(=O)NCC(C)(C)c2nc(-c3ccc(Cl)c(O)c3)c(-c3ccncc3)[nH]2)C1 [TCMDC-140700]
pIC50 (Pf Dd2-B2 ABS parasites): 6.40
pIC50 (sel. Dd2-B2 TKL3T1268R): 5.92

CNCC(C)(C)c1nc(-c2ccc(Cl)c(O)c2)c(-c2ccncc2)[nH]1.Cl [TCMDC-140762]
pIC50 (Pf Dd2-B2 ABS parasites): 6.73
pIC50 (sel. Dd2-B2 TKL3T1268R): 6.35
Reduction in TKL3 kinase activity [1]: no reduction

CC(C)(CNC(=O)[C@H]1CCCN1)c1nc(-c2ccc(Cl)c(O)c2)c(-c2ccncc2)[nH]1 [TCMDC-141060]
pIC50 (Pf Dd2-B2 ABS parasites): 6.74
pIC50 (sel. Dd2-B2 TKL3T1268R): 6.23

CC(C)(CNC(=O)[C@H]1CCCCN1)c1nc(-c2ccc(Cl)c(O)c2)c(-c2ccncc2)[nH]1 [TCMDC-141070]
pIC50 (Pf Dd2-B2 ABS parasites): 6.73
pIC50 (sel. Dd2-B2 TKL3T1268R): 6.14

CC(C)(CNC(=O)[C@@H]1CCCCN1)c1nc(-c2ccc(Cl)c(O)c2)c(-c2ccncc2)[nH]1.Cl [TCMDC-141079]
pIC50 (Pf Dd2-B2 ABS parasites): 6.60
pIC50 (sel. Dd2-B2 TKL3T1268R): 6.11
Reduction in TKL3 kinase activity [1]: no reduction

Cl.NCC1(c2nc(-c3ccc(Cl)c(O)c3)c(-c3ccncc3)[nH]2)CCCCC1 [TCMDC-141154]
pIC50 (Pf Dd2-B2 ABS parasites): 6.85
pIC50 (sel. Dd2-B2 TKL3T1268R): 6.43
PKG pull-down by bead-bound compound [2]: pulled down
CDPK1 pull-down by bead-bound compound [3]: pulled down
AAT pull-down by bead-bound compound [4]: pulled down

CC(C)(CN)c1cc(-c2ccc(Cl)c(O)c2)c(-c2ccncc2)o1.Cl [TCMDC-141334]
pIC50 (Pf Dd2-B2 ABS parasites): 6.56
pIC50 (sel. Dd2-B2 TKL3T1268R): 6.22
Reported kinase inhibitor activity (B-raf kinase): B-raf kinase inhibitor
